Read-outs that look alike come from different tables or passages of the source.
Columns and labels:
[1] = test system: NRK (normal rat kidney epithelial) cells; assay: Cytotoxicity; assay type: cell-based; details: for EC50: ±SEM; for Selectivity towards leukemic cells compared with NRK cells (factor): MOLM-13 vs NRK
MOLM-13 human AML cells = details: ref Viktorsson et al.[26], cited from earlier work
Solubility observation = assay type: physicochemical; details: cell media / DMSO
[2] = read-out: EC50 (μM) NRK 19% O2, 19% O2, 24 h exposure
[3] = read-out: EC50 (μM) MOLM-13 2% O2, 2% O2, ±SEM
[4] = read-out: EC50 (μM) MOLM-13 19% O2, 19% O2, ±SEM
[5] = read-out: EC50 (μM) NRK 2% O2, 2% O2, 24 h exposure

Structure (SMILES)	EC50 (MOLM-13 human AML cells; [3])	EC50 (MOLM-13 human AML cells; [4])	EC50 [1, 5]	other results
Nc1n[n+]([O-])c2ccccc2[n+]1[O-] [Compound 10, 3-amino-1,2,4-benzotriazine 1,4-dioxide]	22 ± 2 µM	95 ± 8 µM	–	EC50 [1, 2]: > 100 µM
[O-][n+]1c2cccc(O)c2[n+]([O-])c2cccc(O)c21 [Compound 3, 1,6-dihydroxyphenazine 5,10-dioxide]	0.79 ± 0.1 µM	2 ± 0.07 µM	> 50 µM	–
COc1cccc2c1[n+]([O-])c1cccc(O)c1[n+]2[O-] [Compound 4, 1-hydroxy-6-methoxyphenazine 5,10-dioxide]	0.77 ± 0.13 µM	1.4 ± 0.3 µM	–	Selectivity towards leukemic cells compared with NRK cells (factor) ([1]; hypoxic conditions (2% O2)): around 100
CN1CCN(C(=O)Oc2cccc3c2[n+]([O-])c2cc(Cl)c(Cl)cc2[n+]3[O-])CC1 [Compound 54]	–	–	–	Selectivity towards leukemic cells compared with NRK cells (factor) ([1]; 19% O2): more than 30
[O-][n+]1c2cc3ccccc3cc2[n+]([O-])c2c(O)cccc21 [Compound 45]	–	–	–	Solubility (Solubility observation): practically insoluble
[O-][n+]1c2ccccc2[n+]([O-])c2c(O)cccc21 [Compound 21, 1-Hydroxyphenazine 5,10-dioxide]	–	–	> 100 µM	–
CCOC(=O)COc1cccc2c1[n+]([O-])c1cccc(O)c1[n+]2[O-] [Compound 7, 1-hydroxy-6-(2-ethoxy-2-oxoethoxy) phenazine 5,10-dioxide]	0.49 ± 0.12 µM	0.57 ± 0.06 µM	–	–
CCOC(=O)Oc1cccc2c1[n+]([O-])c1cccc(OC(=O)OCC)c1[n+]2[O-] [Compound 14]	–	–	> 25 µM	–
Cc1cc2c(cc1C)[n+]([O-])c1c(O)cccc1[n+]2[O-] [Compound 44, 7,8-Dimethyl-1-hydroxyphenazine 5,10-dioxide]	–	–	> 50 µM	–
CCOC(=O)COc1cccc2c1[n+]([O-])c1cc(C)c(C)cc1[n+]2[O-] [Compound 48]	–	–	> 100 µM	EC50 [1, 2]: 140 ± 2 µM

— article PMC8152588 (RSC Medicinal Chemistry, 2021)
